Columns and labels:
[1] = target: T1, QPCTL (Homo sapiens (Human), UniProt Q9NXS2); experiment: Inhibition of Cellular QPCTL Activity - Imaging Assay, CC2C6 anti-CD47 staining of DLD-1 cells; assay type: cell-based; conditions: 72 hours, CC2C6 anti-CD47 high-content imaging
Procedure: Inhibition of Cellular QPCTL Activity—Imaging Assay
The cells were incubated for 72 hours at 37° C. and 5% CO2. […] After primary antibody staining, the cells were fixed with 4% paraformaldehyde in the incubation buffer for 15 minutes at room temperature. […] Cells were analyzed on a ImageXpress Pico Automated Cell Imaging System (Molecular Devices) using 10× objective (3×3 fields).
Target sequence in this assay (Q9NXS2 whole entry): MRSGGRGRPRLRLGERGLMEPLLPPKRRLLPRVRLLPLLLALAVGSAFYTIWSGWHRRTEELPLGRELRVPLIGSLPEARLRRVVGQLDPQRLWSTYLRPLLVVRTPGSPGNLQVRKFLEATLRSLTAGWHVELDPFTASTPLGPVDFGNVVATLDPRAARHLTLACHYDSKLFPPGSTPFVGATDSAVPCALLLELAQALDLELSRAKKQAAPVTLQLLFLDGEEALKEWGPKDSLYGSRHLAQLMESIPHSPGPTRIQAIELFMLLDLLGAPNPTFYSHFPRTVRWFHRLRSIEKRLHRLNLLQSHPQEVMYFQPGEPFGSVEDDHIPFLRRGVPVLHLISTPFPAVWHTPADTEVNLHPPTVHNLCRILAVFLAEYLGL

[2] = target: QPCT (rhQPCT) (Homo sapiens (Human), UniProt Q16769); experiment: QPCT Enzymatic Activity Assay (coupled-enzyme fluorescent assay, H-Gln-AMC substrate); assay type: biochemical; conditions: rhQPCT 10-12 nM, 10 μM H-Gln-AMC; read-out: QPCT Inhibition IC50
Sequence of QPCT (rhQPCT) (Q16769 29-361): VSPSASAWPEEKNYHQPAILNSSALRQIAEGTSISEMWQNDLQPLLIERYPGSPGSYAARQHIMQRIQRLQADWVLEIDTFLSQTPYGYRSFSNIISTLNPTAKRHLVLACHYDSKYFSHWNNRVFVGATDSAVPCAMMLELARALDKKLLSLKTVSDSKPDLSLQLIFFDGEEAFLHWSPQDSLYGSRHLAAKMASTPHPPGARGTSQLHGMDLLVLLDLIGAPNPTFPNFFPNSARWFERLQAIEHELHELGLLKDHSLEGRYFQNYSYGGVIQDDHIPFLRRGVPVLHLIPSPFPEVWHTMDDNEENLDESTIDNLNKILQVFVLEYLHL
Method in brief: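 Coupled assay: recombinant human QPCT converts H-Gln-AMC (10 μM final) to pyroglutamyl-AMC, 60 min at 37 °C, stopped by boiling; PGPEP-1 then releases AMC.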

[3] = target: T1, QPCTL; experiment: Inhibition of Cellular QPCTL Activity - FACS flow cytometry, CC2C6 anti-CD47 staining of Ramos cells; assay type: cell-based; conditions: Ramos human Burkitts Lymphoma cells, 72-96 hours, % CC2C6-positive cells
Procedure: Inhibition of Cellular QPCTL Activity—Fluorescence-Activated Cell Sorting (FACS) Flow Cytometry
The cells were incubated for 72-96 hours at 37° C. and 5% CO2. At the end of incubation period, cells were transferred to tubes and spun down at 1200 rpm for 5 minutes. […] After antibody staining, the cells were washed with FACS buffer then stained with SYTOX™ Blue dead cell stain at a dilution of 1:1000. Cells were analyzed on a BD FACS Melody and a positive staining gate on live cells was set using the 0.1% DMSO controls. […] Flow cytometry data were analyzed by FlowJo software and concentration-response-curves and IC50 values were generated using Collaborative Drug Discovery software.
Target sequence in this assay (Q9NXS2 whole entry): as the sequence (Q9NXS2 whole entry) above

[4] = target: T1, QPCTL; experiment: QPCTL Enzymatic Activity Assay (coupled-enzyme fluorescent assay, H-Gln-AMC substrate); assay type: biochemical; conditions: recombinant truncated human QPCTL 10-12 nM, 10 μM H-Gln-AMC; read-out: QPCTL Inhibition IC50
Target sequence in this assay (Q9NXS2 53-382): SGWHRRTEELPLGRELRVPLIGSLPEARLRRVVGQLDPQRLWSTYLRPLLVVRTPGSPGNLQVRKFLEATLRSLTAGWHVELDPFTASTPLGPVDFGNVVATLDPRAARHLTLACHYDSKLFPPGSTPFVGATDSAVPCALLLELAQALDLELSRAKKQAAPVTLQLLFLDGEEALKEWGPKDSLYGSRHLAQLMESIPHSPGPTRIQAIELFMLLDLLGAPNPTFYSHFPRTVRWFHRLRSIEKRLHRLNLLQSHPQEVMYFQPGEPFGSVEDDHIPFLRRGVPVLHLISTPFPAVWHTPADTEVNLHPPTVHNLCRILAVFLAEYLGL

| Structure (SMILES) | IC50 [1] | IC50 [2] | IC50 [3] | IC50 [4] |
| --- | --- | --- | --- | --- |
| Cn1cnnc1C1CCN(c2c(-c3ccnnc3)ccc(Cl)c2C#N)CC1 [Example 33, 6-chloro-2-[4-(4-methyl-4H-1,2,4-triazol-3-yl)piperidin-1-yl]-3-(pyridazin-4-yl)benzonitrile] |  | < 0.1 µM | < 0.1 µM | < 0.1 µM |
| Cn1cnnc1C1CCN(c2c(C#N)cccc2-c2cnc(=O)n(C)c2)CC1 [Example 34, 3-(1-methyl-2-oxo-1,2-dihydropyrimidin-5-yl)-2-[4-(4-methyl-4H-1,2,4-triazol-3-yl)piperidin-1-yl]benzonitrile] | 0.1 to 1 µM | < 0.1 µM | 1 to 10 µM | < 0.1 µM |
| Cn1cc(-c2ccc(-c3ccc(F)nc3)c(N3CCC(c4nncn4C)CC3)c2C#N)cn1 [Example 35, 3-(6-fluoropyridin-3-yl)-6-(1-methyl-1H-pyrazol-4-yl)-2-[4-(4-methyl-4H-1,2,4-triazol-3-yl)piperidin-1-yl]benzonitrile] | < 0.1 µM | < 0.1 µM | < 0.1 µM | < 0.1 µM |
| Cn1cc(-c2ccc(-c3ccnnc3)c(N3CCC(c4nncn4C)CC3)c2C#N)cn1 [Example 36, 6-(1-methyl-1H-pyrazol-4-yl)-2-[4-(4-methyl-4H-1,2,4-triazol-3-yl)piperidin-1-yl]-3-(pyridazin-4-yl)benzonitrile] |  | < 0.1 µM | < 0.1 µM | < 0.1 µM |
| CN(C)CCOc1ccc(-c2ccc(F)nc2)c(N2CCC(c3nncn3C)CC2)c1C#N [Example 37, 6-[2-(dimethylamino)ethoxy]-3-(6-fluoropyridin-3-yl)-2-[4-(4-methyl-4H-1,2,4-triazol-3-yl)piperidin-1-yl]benzonitrile] |  | < 0.1 µM | < 0.1 µM | < 0.1 µM |
| Cn1cnnc1C1CCN(c2c(C#N)ccc(F)c2-c2ccc(F)nc2)CC1 [Example 38, 4-fluoro-3-(6-fluoropyridin-3-yl)-2-[4-(4-methyl-4H-1,2,4-triazol-3-yl)piperidin-1-yl]benzonitrile] | < 0.1 µM | < 0.1 µM | < 0.1 µM | < 0.1 µM |
| Cn1cnnc1C1CCN(c2c(C#N)ccc(F)c2-c2ccnnc2)CC1 [Example 39, 4-fluoro-2-[4-(4-methyl-4H-1,2,4-triazol-3-yl)piperidin-1-yl]-3-(pyridazin-4-yl)benzonitrile] |  | < 0.1 µM | 0.1 to 1 µM | < 0.1 µM |

Further lines, results first:

| IC50 [1] | IC50 [2] | IC50 [3] | IC50 [4] | Structure (SMILES) |
| --- | --- | --- | --- | --- |
| < 0.1 µM | < 0.1 µM | < 0.1 µM | < 0.1 µM | COc1ccc(-c2ccc(F)nc2)c(N2CCC(c3nncn3C)CC2)c1C#N [Example 24, 3-(6-fluoropyridin-3-yl)-6-methoxy-2-[4-(4-methyl-4H-1,2,4-triazol-3-yl)piperidin-1-yl]benzonitrile] |
| 1 to 10 µM | < 0.1 µM | 0.1 to 1 µM | < 0.1 µM | COc1ccncc1-c1ccc(OC)c(C#N)c1N1CCC(c2nncn2C)CC1 [Example 25, 6-methoxy-3-(4-methoxypyridin-3-yl)-2-[4-(4-methyl-4H-1,2,4-triazol-3-yl)piperidin-1-yl]benzonitrile] |
|  | < 0.1 µM | < 0.1 µM | < 0.1 µM | Cn1cnnc1C1CCN(c2c(-c3ccc(F)nc3)ccc(Cl)c2C#N)CC1 [Example 30, 6-chloro-3-(6-fluoropyridin-3-yl)-2-[4-(4-methyl-4H-1,2,4-triazol-3-yl)piperidin-1-yl]benzonitrile] |
